Laboratory results taken from patent publication US8470780B2, “Methods and compositions related to targeting wounds, regenerating tissue, and tumors” (Sanford-Burnham Medical Research Institute, priority 2006, dated 2013).
Bridges are numbered along the chain shown (N, C = ends). Where no end group is shown, it is not given here.

Legend:
tendon and skin wounds = assay: Tissue distribution of fluorescein-labeled peptides after intravenous injection; format: in vivo, mice and rats; conditions: FITC conjugates; for fluorescent signal in the wounds: 4 and 8 hours after injection
Description: Two types of injuries were used with patellar tendons: For phage screening in rats, patellar tendons were exposed through small skin incisions placed on the lateral side of the joint so that the skin wound and tendon wound were not in direct contact with each other. Six longitudinal, full-length incisions were made into the tendon. Full-thickness incision wounds, 1.5 cm in length, were made in skin on the back of the animal. The skin wounds were left uncovered without a dressing. For quantification of phage homing and peptide injections, two size 11 surgical scalpels were placed side-by-side and the central third of the patellar tendon was removed analogous to the graft used in anterior cruciate ligament reconstruction. Achilles tendons were wounded by making four longitudinal, full-length incisions into the tendon Skin wounds were 8 mm circular, full-thickness excision wounds, made to the skin with a biopsy punch. None of the procedures prevented the animals from bearing weight and moving immediately after the operation and without a noticeable […].
Peptides were synthesized with an automated peptide synthesizer by using standard solid-phase fluorenylmethoxycarbonyl chemistry. During synthesis, the peptides were labeled with fluorescein with an amino-hexanoic acid spacer. Each individual fluorescein-conjugated peptide was injected intravenously into the tail vein of rats or mice with wounds. The peptides were allowed to circulate for different periods of time, followed by heart perfusion. Tissues were embedded into OCT (Tissue-Tek) and processed for microscopy.
Frozen tissue sections were fixed in acetone for 10 min and incubated with 0.5% blocking reagent for 1 hour (NEN Life Sciences, Boston, Mass.). Tissue sections were incubated with the primary antibody overnight at 4° C. The following monoclonal (mAbs) and polyclonal antibodies (pAbs) were used: rabbit anti-T7-phage affinity-purified pAb (1:100), rat anti-mouse CD31 mAb (1:200; BD Pharmingen) and rabbit anti-FITC pAb (1:200, Invitrogen, Carlsbad, Calif.). The primary antibodies were detected with labeled secondary antibodies, and each staining experiment included sections stained with species-matched immunoglobulins as negative controls. The sections were washed several times with PBS, mounted in Vectashield Mounting Medium with DAPI (Vector Laboratories) and visualized under an inverted fluorescent or light microscope.

[1] = tested on: MDA-MB-235 tumor xenografts; assay: Homing of fluorescein-conjugated peptides to tumor xenografts; format: in vivo, mice; conditions: intravenous, tumor collected 4 hours later; for homing to tumors and extravasation: fluorescence
Experimental: Fluorescein-conjugated peptides CAR, control peptide CAR2, CRK and control peptide KAREC were intravenously injected into mice with MDA-MB-235 tumor xenografts. Tumor tissue was collected 4 hours later and examined for the presence of the peptides. Blood vessels were stained with CD-31 antibody and the nuclei were stained with DAPI.
Fluorescein-conjugated peptides CAR, control peptide CAR2, CRK and control peptide KAREC were intravenously injected into mice with MDA-MB-235 tumor xenografts. Tumor tissue was collected 4 hours later and examined for the presence of the peptides. Adjacent tissue section were stained for blood vessels (CD-31), while the FITC-labeled peptide was first detected with rabbit anti-FITC followed by biotin-conjugated anti-rabbit IgG to confirm the source of fluorescent signal to be from the FITC-labeled peptide. The sections were then stained with hematoxylin-eosin.

CHO-K cells [2] = assay: Internalization of fluorescein-labeled peptides by CHO-K cells; format: cell-based, Chinese hamster; conditions: for fluorescence and localization in CHO-K cells by confocal microscopy: FITC-conjugated peptides 10 μM, 4 hours; for accumulation in CHO-K cells: comparison of CHO-K and pgsA-745 cells
Experimental: (§1) To study peptide internalization, CHO-K cells or HUVEC seeded on plastic coverslips were incubated with 10 μM fluorescein-conjugated peptides for 30 min to 72 hours, washed 3 times with PBS, and fixed with 4% paraformaldehyde for 20 min at room temperature. After several washes with PBS, the nuclei were visualized by staining with DAPI, and the slides were mounted with ProLong Gold antifade reagent (Invitrogen, Carlsbad, Calif.). The images were acquired using Olympus IX81 inverted and Olympus Fluoview FV1000 confocal microscopes. Z-stack images were taken by confocal microscope every 1 μm through the cells.

pgsA-745 cells [3] = assay: Internalization of peptides by pgsA-745 cells; format: cell-based, Chinese hamster; conditions: comparison of CHO-K and pgsA-745 cells
[4] = tested on: human umbilical vein endothelial cells (HUVECs); assay: Internalization of peptides by HUVECs; format: cell-based; conditions: 10 μM, 24 h
Experimental: as §1

CHO-K cells [5] = assay: FACS analysis of peptide binding to CHO-K cells; format: cell-based, Chinese hamster; conditions: for peptide binding to CHO-K cells: 5 μM peptide
Experimental: (§2) Peptide binding to cells was studied essentially as described above for phage. Peptides were tested at 5 μM concentration, with or without 5×10^9 phage. After incubation on ice for 30 min, the cells were washed and resuspended with PBS containing 2 μg/ml of propidium iodide (PI, Invitrogen, Carlsbad, Calif.) and analyzed using a FACScan flow cytometer (BD, San Jose, Calif.).

mitochondrial membranes = conditions: concentration of 10 μM; cited from earlier work
pgsA-745 cells [6] = assay: FACS analysis of peptide binding to pgsA-745 cells; format: cell-based, Chinese hamster; conditions: 5 μM peptide
Experimental: as §2

| Substance | fluorescent signal in non-tumor tissues (liver, kidney, lung and spleen) (tendon and skin wounds) | fluorescent signal in the wounds (tendon and skin wounds) | homing detected with anti-FITC antibody [1] | homing to tumors and extravasation [1] | fluorescence and localization in CHO-K cells by confocal microscopy (CHO-K cells [2]) | accumulation in CHO-K cells (CHO-K cells [2]) | accumulation in pgsA-745 cells (pgsA-745 cells [3]) | binding and internalization by HUVECs [4] | peptide binding to CHO-K cells (CHO-K cells [5]) | binding and internalization by CHO-K cells (CHO-K cells [2]; fluorescein-labeled peptide) | other results |
| --- | --- | --- | --- | --- | --- | --- | --- | --- | --- | --- | --- |
| CARSKNKDC (disulfide 1-9 (inferred); not fully specified (N-terminus); also: FITC conjugate, site not given here) [tested as fluorescein (FITC) conjugate] | did not differ from that of the fluorescein-labeled CAR2 or KAREC peptides | strong fluorescent signal in the wounds | home to hypervascular regions surrounding the tumors and to tumor tissue | home to tumors and extravasate to tumor tissue | strong green fluorescence that mostly overlaps with nuclear DAPI staining | only binds to and is internalized by the CHO-K cells | only binds to and is internalized by the CHO-K cells | binds to cells and appears to enter the cells co-localizing with the nuclei | strong binding | – | time to accumulation inside the cells, overlapping with the nucleus (CHO-K cells [2]; fluorescein-labeled peptide): ≤ 30 min; inhibition of labeled CAR peptide binding to CHO-K cells by competitor (CHO-K cells [5]; excess unlabeled peptide or phage): inhibited the binding in a dose-dependent manner |
| CARSTKATC [CAR2] | – | no accumulated fluorescence | – | – | no detectable fluorescence | – | – | – | bound only weakly | no binding or internalization | – |
| CGKRK [reference compound] | – | – | – | – | overlap with the nuclei and the cytosol | accumulated in the cytosol and nuclei | accumulated in the cytosol and nuclei | – | – | – | effect of unlabeled competitor on uptake of fluorescein-labeled CAR peptide by CHO-K cells (CHO-K cells [2]; 10-molar excess of unlabeled peptide): did not detectably affect the uptake |
| CRKDKC (not fully specified (N-terminus); cysteine pairing not given here; also: FITC conjugate, site not given here) [tested as fluorescein (FITC) conjugate] | did not differ from that of the fluorescein-labeled CAR2 or KAREC peptides | strong fluorescent signal in the wounds | home to hypervascular regions surrounding the tumors and to tumor tissue | home to tumors and extravasate to tumor tissue | no detectable fluorescence | – | – | binds to the cells, but does not internalize | – | bound to the cells, but was not detectably internalized | – |
| D(KLAKLAK)2 (KLAKLAKKLAKLAKKLAKKLAKAAKKAA) [antimicrobial peptide which promotes disruption of mitochondrial membranes] | – | – | – | – | – | – | – | – | – | – | mitochondrial swelling (mitochondrial membranes): marked mitochondrial swelling |
| KAREC [unrelated 5 amino-acid control peptide, reference compound] | – | no detectable signal in the wounds | – | – | no detectable fluorescence | – | – | – | no binding | – | peptide binding to pgsA-745 cells (pgsA-745 cells [6]): no binding |
